According to patent US20130085105A1, “Transdermal Administration Of Peptides” (The Provost, Fellows and Scholars of the College of Holy …, priority 2010, published 2013):
Values joined by “and” are separate entries in the source; they are usually repeats but may differ in a detail not shown here. Equal entries are not always repeated. Where two headings read alike, the source gives them in different places. Each block holds one compound with its values, some of them ahead of it.

What was measured:
[1] = Partition coefficients n-octanol/deionized water and n-octanol/PBS; format: physicochemical; settings: 24 hours; for Log KOPBS / O/PBS Coefficient (KOPBS): n-octanol/PBS pH 7.4, 37° C.; for Log KOW / O/W Coefficient (KOW): n-octanol/deionized water, 37° C.
Procedure: The partition coefficients for all somatostatin-fatty acid salts in either n-octanol/deionized water or n-octanol/PBS (pH 7.4) were determined. The partition coefficient is the concentration of Compound A or Compound B in the n-octanol phase divided by the concentration in the aqueous or PBS phase.
An accurately weighed sample of each salt was placed into 4 ml HPLC vials sealed with caps containing pierceable silicone septa and dissolved in 2 ml n-octanol. Two ml of either deionized water or PBS were added to each sample; the vials were vortexed vigorously and incubated at 37° C. with agitation for 24 hours in a shaker-incubator at 400 rpm.
Following incubation, two samples were withdrawn from each vial. Once the layers had fully partitioned, a syringe was used to draw a sample of the aqueous phase or the n-octanol phase. Samples from each phase were diluted appropriately with deionized or methanol prior to HPLC analysis.

[2] = Solubility of somatostatin fatty-acid salts; format: physicochemical; settings: 24 hours
Procedure: The solubilities of Compound A and Compound B oleate were determined in deionized water, phosphate-buffered saline (PBS; pH 7.4) and n-octanol. Analysis was carried out by placing an excess of each salt with 1 ml of the selected solvent into four 4 ml sealed HPLC vials. The samples were allowed to equilibrate at 37° C. for 24 hours with shaking. Each of the four dispersions was then filtered through a 0.2 μm nylon membrane (Pall Gelman, Ann Arbor, Mich., U.S.A.). Prior to HPLC analysis, the n-octanol samples were diluted 1:100 with methanol and the PBS and deionized water samples were diluted 1:10 in de-ionized water. Table 7 lists the solubilities of Compound A and Compound B oleate salts in deionized water, PBS and n-octanol.

[3] = In vitro transdermal permeation, diffusion cell, hairless mouse skin; format: in vitro ADME, hairless mice
Description: The abdominal skin from male hairless mice (mice of the HRS strain carrying a mutant Hr gene (hr/hr)) aged 6-8 weeks was cleaned of any subcutaneous fat with blood vessels while maintaining the integrity of the viable epidermis and SC. The excised skin was used immediately after preparation and was not stored prior to use.
(§1) A custom made finite dosing diffusion cell (AGB Scientific, Dublin, Ireland, FIG. 1) based upon and modified from the Keshary-Chien type diffusion cell was used for in vitro permeation studies.
(§2) Three to five diffusion cells were used in each permeation experiment and monitoring was performed over a 48 hour period. The cells were linked in series to a thermostatically controlled circulation bath set at 35° C. to mimic human skin surface temperature. Each cell was placed on a stir-plate set at a defined stirring rate of 1,000 rpm. The surface area for permeation provided by each cell was 3.14 cm^2.
(§3) Data collected from each permeation study included:
(§4) 1) the average maximum flux obtained in 48 hours (Jmax),
(§5) 2) the total absorption characterized as the total weight of peptide delivered transdermally into the receiver compartment over a 48 hour period,
(§6) 3) the lag time to detectable flux which was equivalent to the latest sampling time at which no peptide was detectable by HPLC analysis of the receiver solution, and
(§7) 4) an equivalent 48-hour steady state flux was determined by obtaining the slope of the best-fit line for a plot of cumulative flux per unit area versus time (described by McDaid, D. M. et al., Int. J. Pharm., 133:71-83, 1996).
(§8) Fresh hairless mouse skin samples or fresh or freshly thawed pig skin samples were mounted onto the diffusion cell with the SC topmost and in contact with the donor system. A rubber or plastic ring was placed on top of the skin sample to secure it in position. The combination of the diffusion cell top, the skin and the rubber ring was securely fastened together by means of a threaded cap. A recorded volume of receiver solution was added to the receiver compartment and maintained at 35° C. The receiver solution was 60/40 (v/v) PBS/propylene glycol (pH 7.1). The propylene glycol fraction was used to increase the solubility of the somatostatin-fatty acid salts. Previous work reported by Morgan et al. (J. Pharm. Sci., 87:1213-1218, 1998) has shown that a 50/50 water/propylene glycol receptor solution had no detrimental effect on the barrier integrity of both hairless mouse and porcine skin.
The receiver solution was allowed to equilibrate at 35° C. for 30 minutes. […] A narrow-bore hypodermic needle was used to withdraw 1 ml samples from the receiver compartment via the sampling port; at each sampling time, an equal volume of drug-free receiver solution was immediately added back to the receiver compartment. Samples were analyzed by HPLC.
HPLC determination of peptide content in the receiver solution along with the known surface area of skin used (3.14 cm^2) allowed for calculation of transdermal flux (in units of μg/cm^2/hr) for each time point. Panels 1 and 2 of FIG. 2 show flux […] profiles for the myristate, octanoate, decanoate, linoleate, nonanote, acetate and laurate […]
Once lead candidate somatostatin-fatty acid salts had been selected on the basis of in vitro permeation in a DMSO solution, the effect of different solvents and penetration enhancers on permeation was assessed. The concentration of the donor solution corresponded to 5 mg/ml free base peptide for all experiments and all donor solutions were equilibrated at 37° C. for one hour prior to use. These experiments were carried out using hairless mouse skin and pigskin barriers.

[4] = In vitro transdermal permeation, diffusion cell, pig epidermis; format: in vitro ADME, domestic pigs; settings: pig epidermis; donor 55% EtOH 40% Water 5% Cineole, 5 mg/ml free base peptide
Procedure: The viable epidermal layer was removed from the flanks of freshly sacrificed four month-old female domestic pigs. The flank area of each animal was carefully shaved and the upper 200 μm of skin (Meyer, W., et al., Curr. Prob. Dermatol., 7: 39-52, 1978; de Jalón, et al., J. Control. Rel., 75:191-197, 2001) was harvested using an electric dermatome (Robbins Instruments, Chatham, N.J., U.S.A.). Pigskin epidermal specimens were frozen at −18° C. between layers of PBS-soaked tissue paper enclosed in aluminum foil for up to two weeks prior to use in in vitro permeation studies.
as §1, §2, §3, §4, §5, §6, §7, §8
The receiver solution was allowed to equilibrate at 35° C. for 30 minutes. The experiment was initiated by the application of 1 ml of donor solution containing approximately 5 mg free base peptide in DMSO to the skin surface followed by sealing of the donor compartment with Parafilm®. A narrow-bore hypodermic needle was used to withdraw 1 ml samples from the receiver compartment via the sampling port; at each sampling time, an equal volume of drug-free receiver solution was immediately added back to the receiver compartment. Samples were analyzed by HPLC.
HPLC determination of peptide content in the receiver solution along with the known surface area of skin used (3.14 cm^2) allowed for calculation of transdermal flux (in units of μg/cm^2/hr) for each time point. Panels 1 and 2 of FIG. 2 show flux profiles obtained for the oleate salts of Compound A and Compound B in DMSO which far exceeded the flux profiles for the myristate, octanoate, decanoate, linoleate, nonanote, acetate and laurate salts of Compound A as well as the acetate salt of Compound B in DMSO. […]

[5] = Peptide content in upper and lower skin layers after permeation (tape stripping); format: in vitro ADME, hairless mice; settings: percentage of total applied dose, hairless mouse skin
Procedure: The quantity of peptide present in the upper SC and lower dermis layers of the hairless mouse skin samples were determined for each concentration of analog tested. To determine analog concentrations in the SC, the skin samples were wiped clean of donor solution, patted dry and stripped twenty times with Sellotape®, using a fresh piece for each stripping. The twenty pieces of Sellotape® were pooled in a 50 ml centrifuge tube and 10 ml of 50/50 (v/v) acetonitrile/0.1M TFA was added. The sample was homogenized at 20,000 rpm for 5 minutes and then filtered. The peptide content was determined using HPLC. To determine peptide content in the dermal layer, the remaining skin sample was cut into fine pieces, homogenized and analyzed as described.

[6] = donor 55% EtOH 40% Water 5% Cineole, 5 mg/ml free base peptide
[7] = donor 55/45 (v/v) EtOH/H2O, approx. 5 mg/ml free base peptide
[8] = donor DMSO, approx. 5 mg/ml free base peptide (4.9 mg/ml Compound A oleate, 5.2 mg/ml Compound A acetate)
[9] = donor DMSO, approx. 5 mg/ml free base peptide (4.9 mg/ml Compound A oleate, 5.2 mg/ml Compound A acetate), 48 hr
[10] = donor propylene glycol, approx. 5 mg/ml free base peptide
[11] = 4.3 mg/ml in DMSO +1% (v/v) oleic acid

Compound: D-2-Nal-c(Cys-Tyr-D-Trp-Lys-Val-Cys)-Thr-NH2 [Compound A di-nonanoate]
Log KOPBS [1]: 0.811 | O/PBS Coefficient (KOPBS) [1]: 6.47 | Log KOW [1]: 2.723 | O/W Coefficient (KOW) [1]: 528.50

Compound: D-2-Nal-c(Cys-Tyr-D-Trp-Lys-Val-Cys)-Thr-NH2 [Compound A di-octanoate]
Log KOPBS [1]: 0.827 | O/PBS Coefficient (KOPBS) [1]: 6.71 | Log KOW [1]: 2.794 | O/W Coefficient (KOW) [1]: 622.86

Compound: D-2-Nal-c(Cys-Tyr-D-Trp-Lys-Val-Cys)-Thr-NH2 [Compound A di-myristate]
Log KOPBS [1]: 0.806 | O/PBS Coefficient (KOPBS) [1]: 6.40 | Log KOW [1]: 2.610 | O/W Coefficient (KOW) [1]: 407.50

Log KOPBS [1]: −2.000 | O/PBS Coefficient (KOPBS) [1]: 0.01 | Log KOW [1]: −2.000 | O/W Coefficient (KOW) [1]: 0.01
Compound: [4-(2-hydroxyethyl)]-1-piperazinylacetyl-D-Phe-c(Cys-Tyr-D-Trp-Lys-Abu-Cys)-Thr-NH2 [Compound B di-acetate]

Compound: CC(C)[C@@H]1NC(=O)[C@H](CCCCN)NC(=O)[C@@H](Cc2c[nH]c3ccccc23)NC(=O)[C@H](Cc2ccc(O)cc2)NC(=O)[C@@H](NC(=O)[C@H](N)Cc2ccc3ccccc3c2)CSSC[C@@H](C(=O)N[C@H](C(N)=O)[C@@H](C)O)NC1=O [Compound A di-oleate, D-2-Nal-c(Cys-Tyr-D-Trp-Lys-Val-Cys)-Thr-NH2]
solubility ([2]; deionized water, 37° C., read-out: Solubility DI H2O): 35 µg/mL | solubility ([2]; n-octanol, 37° C., read-out: Solubility n-Octanol): 123000 µg/mL | solubility ([2]; pH 7.4, PBS pH 7.4, 37° C., read-out: Solubility PBS): 40 µg/mL | Jmax ([3]; 8.9 mg/ml free base in DMSO): 24.942 μg/cm^2/hr | Jss ([3]; 8.9 mg/ml free base in DMSO): 3.342 μg/cm^2/hr | Lag Time ([3]; 8.9 mg/ml free base in DMSO): 0.5 h | Total Absorption ([3]; 8.9 mg/ml free base in DMSO): 522.82 μg/48 hr | increase in total peptide flux over 48 hours due to cineole ([3]; 55/40/5 ethanol/water/cineole vs 55/45 ethanol/water): 7.19% | Jmax [3, 6]: 14.100 μg/cm^2/hr | Jss [3, 6]: 6.359 μg/cm^2/hr | Lag Time [3, 6]: 2 h | Total Absorption [3, 6]: 825.35 μg/48 hr | Jmax [3, 7]: 11.343 μg/cm^2/hr | Jss [3, 7]: 5.871 μg/cm^2/hr | Lag Time [3, 7]: 2 h | Total Absorption [3, 7]: 770.02 μg/48 hr | Lag Time [3, 8]: 1.0 h and 1 h | Total Absorption [3, 8]: 448.52 μg/48 hr | Jmax [3, 9]: 19.887 μg/cm^2/hr | Jss [3, 9]: 2.858 μg/cm^2/hr | Jmax [3, 10]: 0.366 μg/cm^2/hr | Jss [3, 10]: 0.318 μg/cm^2/hr | Lag Time [3, 10]: 24 h | Total Absorption [3, 10]: 55.17 μg/48 hr | flux profile in DMSO compared with other salts ([3]; vs myristate, octanoate, decanoate, linoleate, nonanoate, acetate, laurate salts of Compound A and acetate of Compound B): far exceeded | Jmax [4]: 9.019 μg/cm^2/hr | Jss [4]: 1.407 μg/cm^2/hr | Lag Time [4]: 1 h | Total Absorption [4]: 231.09 μg/48 hr | Wt. % delivered ([5]; 4.9 mg free base in DMSO): 9.23% | Wt. % in lower skin layers ([5]; 4.9 mg free base in DMSO): 7.63% | Wt. % in upper skin layers ([5]; 4.9 mg free base in DMSO): 20.22% | Wt. % delivered ([5]; 8.9 mg free base in DMSO): 5.84% | Wt. % in lower skin layers ([5]; 8.9 mg free base in DMSO): 1.09% | Wt. % in upper skin layers ([5]; 8.9 mg free base in DMSO): 49.93%

Compound: CC(C)[C@@H]1NC(=O)[C@H](CCCCN)NC(=O)[C@@H](Cc2c[nH]c3ccccc23)NC(=O)[C@H](Cc2ccc(O)cc2)NC(=O)[C@@H](NC(=O)[C@H](N)Cc2ccc3ccccc3c2)CSSC[C@@H](C(=O)N[C@H](C(N)=O)[C@@H](C)O)NC1=O [Compound A di-acetate, D-2-Nal-c(Cys-Tyr-D-Trp-Lys-Val-Cys)-Thr-NH2, reference compound]
Jmax [3, 11]: 53.576 μg/cm^2/hr | Jss [3, 11]: 1.873 μg/cm^2/hr | Lag Time [3, 11]: 0.0 h | Total Absorption [3, 11]: 387.78 μg/48 hr | effect of 1% (v/v) free oleic acid on flux ([3]; donor DMSO): increase of flux | Lag Time [3, 8]: 29.5 h | Total Absorption [3, 8]: 48.08 μg/48 hr | Jmax [3, 9]: 0.320 μg/cm^2/hr | Jss [3, 9]: 0.240 μg/cm^2/hr

Compound: D-2-Nal-c(Cys-Tyr-D-Trp-Lys-Val-Cys)-Thr-NH2 [Compound A di-laurate]
Log KOPBS [1]: 0.854 | O/PBS Coefficient (KOPBS) [1]: 7.15 | Log KOW [1]: 2.943 | O/W Coefficient (KOW) [1]: 876.40

Compound: D-2-Nal-c(Cys-Tyr-D-Trp-Lys-Val-Cys)-Thr-NH2 [Compound A di-decanoate]
Log KOPBS [1]: 0.844 | O/PBS Coefficient (KOPBS) [1]: 6.99 | Log KOW [1]: 2.325 | O/W Coefficient (KOW) [1]: 211.53

Compound: D-2-Nal-c(Cys-Tyr-D-Trp-Lys-Val-Cys)-Thr-NH2 [Compound A di-linoleate]
Log KOPBS [1]: 0.866 | O/PBS Coefficient (KOPBS) [1]: 7.35 | Log KOW [1]: 1.917 | O/W Coefficient (KOW) [1]: 82.52
